Laboratory results published in US20090209615A1, “INHIBITORS OF MATRIX METALLOPROTEINASES TO TREAT NEUROLOGICAL DISORDERS” (priority 2004, published 2009).
Entries after “also recorded” stand apart in the source; their conditions may differ. Where two headings read alike, the source gives them in different places.

How the values were obtained:
[1] = test system: MMP gelatinolytic activity in the ischemic cortex; test: In situ zymography of ischemic brain sections treated with MMP inhibitors; format: biochemical, mouse; conditions: brain sections after MCA occlusion/reperfusion treated with inhibitor
Method: In situ zymography with the MMP fluorogenic substrate DQ-gelatin-FITC (Molecular Probes) was performed on fresh cryostat sections of mouse brains harvested after MCA ischemia and reperfusion (A to J). […] A, C, E, and G represent fluorogenic substrate (green), reflecting MMP activity in situ. B, D, F, H, I, and J are merged images of the fluorogenic substrate and Hoechst dye counterstaining to identify nuclei.
A, In situ zymography with the MMP fluorogenic substrate DQ-gel (green in top panels) merged with nuclear DNA staining by Hoechst dye (blue plus green in bottom panels).

MMP-9 [2] = test: MMP-9 activity in ischemic mouse brain after treatment in vivo (in situ zymography, gelatin zymography, Western blot); parameters: species or system C57BL/6J mice
laminin = test: Laminin degradation in the ischemic hemisphere after MCAO/R (Western blot, immunostaining); format: in vivo, mouse; conditions: for laminin degradation in the ischemic hemisphere (Western blot, 51 kDa fragment): SB-3CT-treated mice after transient MCAO/R
[3] = test system: C57BL/6J mice, MCA occlusion/reperfusion; test: Transient focal cerebral ischemia (MCA occlusion/reperfusion): infarct volume and neurological deficits; format: in vivo
MMP-9 [4] = target: T1, MMP-9 (Mus musculus, UniProt P41245); test: MMP-9 activity in ischemic mouse brain after treatment in vivo (in situ zymography, gelatin zymography, Western blot); parameters: species or system C57BL/6J mice; conditions: SB-3CT-treated mice, 2-hr MCA occlusion and 24-hr reperfusion
T1 construct: from tissue; host or cells: brain of C57BL/6J mice after MCA occlusion/reperfusion

[5] = Physiological variables and regional cerebral blood flow in MCAO mice; conditions: for Ca^2+ / Glucose / MABP / Na^+ / PCO2 / PO2 / pH: mean ± SEM (n = 5); for regional cerebral blood flow (rCBF), laser Doppler flowmetry: MCAO and reperfusion; for pH: arterial blood
MMP-9 [6] = target: T2, MMP-9 (Homo sapiens, UniProt P14780); test: Ex vivo degradation of neuronal laminin by exogenous MMP-9 in mouse-brain sections; format: biochemical
Target sequence in this assay (P14780 107-707 limits assumed, species assumed): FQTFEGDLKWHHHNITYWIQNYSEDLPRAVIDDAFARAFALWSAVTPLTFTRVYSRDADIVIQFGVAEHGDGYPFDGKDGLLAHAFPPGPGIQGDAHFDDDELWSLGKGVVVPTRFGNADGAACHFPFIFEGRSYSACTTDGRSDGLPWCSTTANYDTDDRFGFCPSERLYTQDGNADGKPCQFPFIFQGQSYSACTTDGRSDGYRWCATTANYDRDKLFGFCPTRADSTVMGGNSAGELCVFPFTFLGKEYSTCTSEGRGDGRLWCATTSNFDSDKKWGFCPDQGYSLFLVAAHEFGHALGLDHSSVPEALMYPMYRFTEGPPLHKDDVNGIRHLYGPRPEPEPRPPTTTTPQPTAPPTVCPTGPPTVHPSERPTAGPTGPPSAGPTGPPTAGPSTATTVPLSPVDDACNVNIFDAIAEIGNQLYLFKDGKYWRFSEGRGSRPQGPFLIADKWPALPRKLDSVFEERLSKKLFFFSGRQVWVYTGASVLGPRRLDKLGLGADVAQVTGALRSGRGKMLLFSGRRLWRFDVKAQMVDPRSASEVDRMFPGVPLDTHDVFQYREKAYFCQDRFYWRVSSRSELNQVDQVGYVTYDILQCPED
Method: Purified mouse Engelbreth-Holm-Swarm laminin (ms EHS Ln) served as a molecular marker for laminin immunoblotting. The membrane was reblotted with anti-actin antibody to ensure equal protein loading in each lane.
Ex vivo laminin degradation and Western blots. Brain lysates (50 mg of total protein in TBS with 0.05% Brij 35) were incubated overnight at 37° C. with activated MMP-9, latent preform of MMP-9 (proMMP-9), or the catalytic domain of membrane type 1 (MT1)-MMP. […] Laminin and MMP-9 were analyzed by immunoblotting using rabbit pan-laminin (pan-Ln) and MMP-9 antibodies (from Sigma (St. Louis, Mo.) and Calbiochem (La Jolla, Calif.), respectively), followed by peroxidase-conjugated anti-rabbit IgG antibody. Peroxidase was visualized by enhanced chemiluminescence (Amersham Biosciences).

cerebrocortical neurons = test: Neuronal apoptosis induced by SNOC-activated MMP-9 in cerebrocortical cultures; format: cell-based; conditions: R-proMMP-9 pre-activated by SNOC, 18 hours
[7] = Stability of S-nitrosothiols (NAT conversion from DAN)
R-proMMP-9 = R-proMMP-9 (Homo sapiens, UniProt P14780); test: Activation of R-proMMP-9 in vitro (gelatin zymography, fluorogenic peptide cleavage)
Chain of R-proMMP-9 (P14780 20-444 limits assumed): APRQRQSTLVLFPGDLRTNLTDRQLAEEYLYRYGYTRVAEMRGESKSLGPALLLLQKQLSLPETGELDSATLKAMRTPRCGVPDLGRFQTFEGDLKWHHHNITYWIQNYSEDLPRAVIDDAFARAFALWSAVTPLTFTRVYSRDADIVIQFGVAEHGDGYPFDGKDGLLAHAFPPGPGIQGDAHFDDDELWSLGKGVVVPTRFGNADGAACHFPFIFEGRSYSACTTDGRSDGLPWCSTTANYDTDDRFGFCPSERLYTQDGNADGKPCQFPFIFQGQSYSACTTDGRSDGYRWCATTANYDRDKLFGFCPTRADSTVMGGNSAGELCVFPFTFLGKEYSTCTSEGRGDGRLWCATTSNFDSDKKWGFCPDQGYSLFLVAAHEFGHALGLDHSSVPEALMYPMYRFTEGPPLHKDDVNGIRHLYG

MMP-2 = target: T3, MMP-2 (Homo sapiens, UniProt P08253); conditions: high-affinity site for TIMPs, Olson et al. 1997; cited from earlier work
T3 sequence (P08253 110-660): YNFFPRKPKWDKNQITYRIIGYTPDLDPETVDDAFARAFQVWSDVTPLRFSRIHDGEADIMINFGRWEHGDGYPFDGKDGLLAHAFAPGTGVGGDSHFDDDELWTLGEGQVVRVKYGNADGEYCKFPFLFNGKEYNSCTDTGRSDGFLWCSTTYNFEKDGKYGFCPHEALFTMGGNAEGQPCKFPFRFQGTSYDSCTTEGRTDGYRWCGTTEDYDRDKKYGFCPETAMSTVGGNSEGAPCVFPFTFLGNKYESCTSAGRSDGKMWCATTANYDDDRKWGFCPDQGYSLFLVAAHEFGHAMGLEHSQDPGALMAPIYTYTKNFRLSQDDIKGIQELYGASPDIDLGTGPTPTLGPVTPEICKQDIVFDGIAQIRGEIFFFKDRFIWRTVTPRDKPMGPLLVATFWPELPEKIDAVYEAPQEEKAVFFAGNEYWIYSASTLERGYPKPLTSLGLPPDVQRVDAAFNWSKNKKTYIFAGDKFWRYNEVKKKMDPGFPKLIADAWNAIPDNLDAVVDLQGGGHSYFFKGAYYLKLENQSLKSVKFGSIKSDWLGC

MMP-9 [8] = target: T2, MMP-9; conditions: high-affinity site for TIMPs, Olson et al. 1997; cited from earlier work
Target sequence in this assay (P14780 107-707 limits assumed): as the sequence (P14780 107-707 limits assumed, species assumed) above

## c1cnc2c(c1)ccc1cccnc12 [1,10-phenanthroline]
[1]
  MMP gelatinolytic activity in the ischemic cortex (in situ zymography): reduced; also recorded: abrogated
[1]; listed as 1/10-phenanthroline
  MMP gelatinolytic activity in the ischemic cortex (in situ zymography): can prevent activation of MMP-9

## O=[N+]([O-])c1cccc2c(Br)n[nH]c12 [3-bromo-7-nitroindazole, reference compound]
MMP-9 [2]; 30 mg/kg body weight i.p. prior to ischemia, wild-type mice
  MMP activity in the ischemic cortex (in situ zymography): abrogated
laminin; wild-type mice treated with nNOS inhibitor, after MCA occlusion/reperfusion
  laminin degradation in the ischemic cortex (laminin immunoreactivity): attenuated; also recorded: blockage of laminin degradation

## O=S(=O)(CC1CS1)c1ccc(Oc2ccccc2)cc1 (stereo not shown) [Compound 1, (4-Phenoxyphenylsulfonyl)methylthiirane]
[3]; 25 mg/kg i.p. twice, 30 minutes before MCAO and 2 hours after MCAO, 2-hour MCAO, 24-hour reperfusion, vs vehicle, P<0.004 (FIG. 9), listed as SB3CT
  infarct volume (TTC staining): decreases infarct volume; also recorded: protects the ischemic brain
[3]; 25 mg/kg i.p., 24 h after reperfusion, vs vehicle-treated controls, p<0.001 (FIG. 14C)
  infarct volume (TTC staining): decreased infarct volume
[3]; 25 mg/kg i.p., administration 6 h after ischemia, compared with 55% in vehicle-treated animals
  infarct volume: 40%
[3]; 25 mg/kg i.p., first injection 2 h postischemic, second 3 h later, 24 h after reperfusion
  infarct volume: 30 % of control
[3]; 25 mg/kg i.p., preischemic injection (30 min before ischemia, second immediately before reperfusion), 24 h after reperfusion
  infarct volume: 30 % of control
[3]; 24 h after MCA occlusion/reperfusion, vs vehicle-treated controls, p<0.02 (FIG. 14D)
  neurological behavioral score: significantly improved neurological function
[3]; 24 hours after focal MCAO and reperfusion, vs vehicle, P<0.01 (FIG. 9C), listed as SB3CT
  neurological behavioral outcomes (deficit score 0-4): significantly reduced neurological deficit outcomes; also recorded: improved
[3]; treated 2 h after ischemia, 24 h after reperfusion
  behavioral scores (five-point scale): significant improvement in behavioral scores
[3]; treated before ischemia, 24 h after reperfusion
  behavioral scores (five-point scale): significant improvement in behavioral scores
MMP-9 [4]; listed as SB3CT
  active MMP-9 in ischemic brain (gelatin zymography, Western blot): attenuated the increase; also recorded: can prevent activation of MMP-9
  proMMP-9 in ischemic brain (gelatin zymography, Western blot): attenuated the increase
MMP-9 [4]; listed as SB-3CT
  active MMP-9 in ischemic brain (gelatin zymography, Western blot): attenuated the increase; also recorded: significantly decreased
  proMMP-9 in ischemic brain (gelatin zymography, Western blot): attenuated the increase; also recorded: also decreased
MMP-9 [2]; SB-3CT-treated mice vs vehicle-treated control, after MCAO/reperfusion
  MMP gelatinolytic activity in the ischemic region (in situ zymography, deconvolution microscopy): significantly reduced
laminin; listed as SB3CT
  laminin degradation in the ischemic hemisphere (Western blot, 51 kDa fragment): attenuated laminin degradation products
laminin; listed as SB-3CT
  laminin degradation in the ischemic hemisphere (Western blot, 51 kDa fragment): decreased laminin degradation; also recorded: reduced
[5]; After MCAO
  Ca^2+: 1.100 ± 0.074 mmol/L
  Glucose: 154.3 ± 12.6 mg/dL
  MABP: 76.12 ± 2.89 mmHg
  Na^+: 157.7 ± 2.0 mmol/L
  PCO2: 43.90 ± 5.28 mmHg
  PO2: 245.4 ± 24.0 mmHg
  pH: 7.170 ± 0.027
[5]; Before MCAO
  Ca^2+: 1.150 ± 0.021 mmol/L
  Glucose: 160.7 ± 13.2 mg/dL
  MABP: 78.68 ± 3.17 mmHg
  Na^+: 155.7 ± 1.8 mmol/L
  PCO2: 40.70 ± 7.828 mmHg
  PO2: 230.8 ± 31.7 mmHg
  pH: 7.313 ± 0.060
[5]; During MCAO
  Ca^2+: 1.117 ± 0.081 mmol/L
  Glucose: 162.70 ± 13.3 mg/dL
  MABP: 79.49 ± 3.48 mmHg
  Na^+: 157.20 ± 0.5 mmol/L
  PCO2: 44.95 ± 14.55 mmHg
  PO2: 214.5 ± 10.3 mmHg
  pH: 7.106 ± 0.025
[5]; vs vehicle-treated controls, listed as SB3CT
  regional cerebral blood flow (rCBF), laser Doppler flowmetry: no significant differences; also recorded: unaffected
[5]; vs vehicle-treated controls, listed as SB-3CT
  regional cerebral blood flow (rCBF), laser Doppler flowmetry: no significant differences
[5]; vs vehicle-treated controls
  physiological parameters including arterial blood gases and glucose: did not affect

## O=S(=O)(CCC1CO1)c1ccc(Oc2ccccc2)cc1 (stereo not shown) [Compound 5, 2-(4-Phenoxyphenylsulfonyl)ethyloxirane]
other
  melting point: 75 to 77 °C

## CNC(=O)[C@H](Cc1c[nH]c2ccccc12)NC(=O)[C@@H](CC(=O)NO)CC(C)C [GM6001]
[1]
  MMP gelatinolytic activity in the ischemic cortex (in situ zymography): reduced; also recorded: abrogated; also recorded: can prevent activation of MMP-9
MMP-9 [6]
  degradation of neuronal laminin by activated MMP-9: significantly reduced laminin degradation; also recorded: inhibited MMP-9 proteolysis of neuronal laminin
Cerebrocortical neurons
  neuronal apoptosis: abrogated the effect; also recorded: blocked the neuronal cell death

## N[C@@H](CSN=O)C(=O)O [SNOC, S-nitrosocysteine]
[7]
  half-life at 200 μM: < 10 min
[7]; within 15 min of incubation
  decayed: over 95%
R-proMMP-9; R-proMMP-9 100 ng/ml, 200 μM agent, 18 hours, room temperature
  conversion of R-proMMP-9 into the activated form (gelatin zymography): partial conversion
R-proMMP-9; cleavage of synthetic fluorogenic peptide substrate
  initial velocity of R-proMMP-9 activation: 0.88 µM/h

## O=NO [acidified sodium nitrite, sodium nitrite]
R-proMMP-9
  conversion of R-proMMP-9 into the activated form (gelatin zymography): partial conversion

## TIMP-1: endogenous cellular protein inhibitor of MMPs (tissue inhibitor of metalloproteinases)
MMP-2
  Ki: 29 ± 5 nM
MMP-9 [8]
  Ki: 24 ± 4 nM
